Here are results for five compounds from patent US4473581A (priority 1979, dated 1984).

Counter-ions that a name gives are not always drawn.

The conditions of data set [1]: background statement on known inducers; cited from earlier work.
Data set [2] deals with MEP-II tumor cells. The experiment in a line: Anti-tumor effect of oral Ge in MEP-II tumor bearing mice. The note with it: 100 and 300 mg/kg oral, once daily, seven days. Format: in vivo, DDI mice. As to the method:
4×10^3 MEP-II tumor cells were transplanted intraperitoneally in DDI mice as described above. Twenty-four hours later, Ge was orally administered, once daily for seven consecutive days at a daily dosage of 100 or 300 mg/kg to ascertain any anti-tumor effect. In a control group, 0.2 ml of physiological saline solution was orally administered, also once daily for seven days.

For data set [3], the system named is vesicular stomatitis virus (VSV) in L-1D cells. The format is cell-based.
For data set [4] the test system is unchanged. The format is cell-based. This is another data set of the same source.
For data set [5], the system named is Ehrlich ascites tumor cells. In words: Anti-tumor activity of peritoneal exudate cells from Ge treated mice on Ehrlich ascites tumor bearing mice. Format: in vivo, DDI mice. The note with it: peritoneal exudate cells from mice given 300 mg/kg Ge, six days i.p. (FIG. 3). The method, then: An anti-tumor activity test of peritoneal exudate cells obtained from mice treated with Ge in a dosage amount of 300 mg/kg was conducted on Ehrlich ascites tumor bearing mice.
1×10^5 cells/mouse of Ehrlich ascites tumor cells were transplanted into the peritoneal cavity of DDI mice. Twenty-four hours later, these mice were intraperitoneally supplied with 5×10^3 peritoneal exudate cells obtained from mice treated with Ge once daily for six consecutive days. Peritoneal exudate cells obtained from saline injected mice were likewise supplied to tumor bearing mice as a control.

The test system of data set [6] is vesicular stomatitis virus (VSV) in human embryonic lung cells. Format: cell-based. As to conditions: human serum, 75 mg/kg oral.
The test system of data set [7] is FM-3A cells. In words: Growth inhibition of FM-3A tumor cells co-cultured with macrophages from Ge treated mice. As to conditions: 48 hours. The format is cell-based. As to the method: It is known that interferon has the ability to convert a standing macrophage into a tumoricidal macrophage, deemed activated macrophage (A-M.phi.), either in vivo or in vitro. Since the Ge induced the formation of immune interferon in vivo, it was expected that A-M: would be induced in the Ge treated animal.
Peritoneal exudate cells obtained from mice 72 hours after treatment with a 300 mg/kg dose of Ge were cultured for 20 minutes in a petri dish utilizing RPMI-1640 medium supplemented with 10% fetal calf serum. Cells adhering to the petri dish, obtained by washing with the same culture medium, were separately co-cultured with FM-3A cells as the target tumor cells, in a ratio of 10:1. FM-3A cells were cultured singly, or with macrophages derived from normal mice, as the control. In each run, the growth of FM-3A cells was monitored. A determination of the number of FM-3A cells was carried out per the dye exclusion test using Trypan-Blue. […] Thus, it is apparent that Ge induces the formation of A-M: in live mice.

Data set [8] relates to interferon. The experiment in a line: Interferon induction in healthy volunteers. The format is in vivo. As to conditions: human. The method, then: Capsules of Ge were orally administered to eight healthy volunteers, 21 to 23 years old. The dose administered to one group (two men and two women) was 75 mg/kg and that administrated to the other group (two men and two women) was 25 mg/kg. Serum samples were collected at predetermined intervals, the interferon titers were determined, and the results reflected in FIGS. 4 and 5 were obtained. […] The reported results thus evidence that Ge induces A-M.phi. in humans as well as in mice.

A short description of data set [9]: Acute toxicity (LD50) in rats. The note with it: rat, in vivo.
Data set [10] concerns rats. In words: Chronic toxicity test in rats, oral, six months. The note with it: six months, 30, 300 or 3000 mg/kg per day.
The test system of data set [11] is dogs. The experiment in a line: Chronic toxicity in dogs, intravenous, six months. The note with it: 500 mg/kg per day.
Data set [12] can be described thus: Acute toxicity (LD50) in mice. The note with it: mouse, in vivo.
[13] abbreviates: intravenous injection, larger than any physically practicable maximum amount.

As to `CCCCCCCCCCCCCCCCCCN(CCCCCCCCCCCCCCCCCC)CCCN(CCO)CCO` [CP-20961], the adverse side effects entry in data set [1] is “one or more adverse side effects”.

Regarding `O=C(O)C[CH2][Ge](=[O])[O][Ge](=[O])[CH2]CC(=O)O` [Ge], in data set [2], the “anti-tumor activity (in words)” value was “both dosage amounts of Ge exhibited anti-tumor activity”. Moreover, the “stability of induced factor to heat and acid (in words)” value in [3] (mouse serum, 56° C. one hour, acidification to pH 2.0) was “unstable to thermal treatment at 56 °C for one hour and also to acidification to pH 2.0”. Also, the “trypsin lability of induced factor (in words)” value in data set [3] (mouse serum, trypsin 37° C., 3 hours) is recorded as “trypsin labile”. In addition, the “type of interferon induced” value in data set [3] (mouse serum, from thermal and acid treatments) is recorded as “immune (type II) interferon”. For the same compound, in data set [4] (mice, 300 mg/kg oral, 25 hours after administration (FIG. 1)), the “viral infection inhibitory activity in serum” value is recorded as “viral infection inhibitory activity was detected”. Also, in [4] (mice, oral, varied doses (FIG. 2)), the “dose dependency of viral infection inhibitory activity” value is on record as “dose dependent”. For the same compound, the “species specificity of induced viral infection inhibitory factor” value in data set [4] (mouse and human sera compared on L-1D, human embryonic lung and chicken embryonic cells) was “species specific”. Besides, in data set [4] (mouse serum, 300 mg/kg oral), the “antiviral activity of induced agent, L-1D cells (in words)” value was “displayed resistance to viral infection only in the L-1D cells”. Further, in [5], the “anti-tumor activity of macrophage activated by Ge treatment (in words)” value is on record as “marked anti-tumor activity”. In addition, the “antiviral activity of induced agent, human cells (in words)” value in [6] is “displayed antiviral activity only in human cells”. In addition, the “growth of FM-3A cells (in words)” value in [7] is “prominently inhibited”. The production of interferon result is “production of interferon was observed, although the level was lower” in data set [8] (25 mg/kg oral capsules (FIGS. 4 and 5)); “significant production of interferon was observed in each case” in data set [8] (75 mg/kg oral capsules (FIGS. 4 and 5)).

By LD50 is commonly meant the dose expected to kill half of the subjects tested. Turning to `O=C(O)C[CH2][Ge](=[O])[O][Ge](=[O])[CH2]CC(=O)O` [carboxyethyl germanium sesquioxide], the LD50 in [9] (setting [13]) is more than 1000 mg/kg; in data set [9] (oral), more than 10000 mg/kg; in [12] (setting [13]), more than 1000 mg/kg; in data set [12] (oral) it was more than 6300 mg/kg. Besides, in data set [10], the “death in chronic toxicity test” value is on record as “no rat died”. The “pathological disorder in chronic toxicity test” value in [10] is “no pathological disorder was observed”. In addition, the toxicity result in data set [11] is on record as “no toxicity was found”.

For the compound `CCN(CC)CCOc1ccc2c(c1)C(=O)c1cc(OCCN(CC)CC)ccc1-2` [tilorone hydrochloride], in data set [1], the adverse side effects result is “one or more adverse side effects”.

For “double-stranded complex polyriboinosinic acid and polyribocytidylic acid [Poly 1-C, reference compound]”, in [3] (pH 2), the “Interferon Titer” value worked out at 640 and the “Remaining amount of titer” value turned out to be 100%.
